In patent US10300052B2, “Methods for increasing CFTR activity” (THE UAB RESEARCH FOUNDATION, priority 2012, dated 2019):

How the values were obtained:
[1] = tested on: porcine trachea CFTR−/−; experiment: μOCT imaging of airway epithelial function in porcine trachea, CFTR-/- animals; settings: sequential ivacaftor 10 μM, forskolin 100 nM, acetylcholine 100 μM in bath, 37° C. (FIG. 7G)
Description: FIGS. 7A-7H show the effects of CFTR activators on airway epithelial function in intact porcine trachea by μOCT. FIGS. 7A-7B show representative μOCT images for a CFTR−/− (FIG. 7A) and CFTR+/+ (FIG. 7B) animal. FIGS. 7C-7F, respectively, show ASL depth (FIG. 7C), PCL depth (FIG. 7D), CBF (FIG. 7E) and MCT (FIG. 7F) measurements derived from μOCT images from CFTR−/− and CFTR+/+ animals. FIGS. 7G and 7H show the response of epithelial functional parameters, namely ASL depth and MCT in CFTR−/− (FIG. 7G) and CFTR+/+(FIG. 7H) animals in response to sequential pharmacologic intervention by ivacaftor (10 μM), forskolin (100 nM) and acetylcholine (100 μM).
To further investigate the role of CFTR activators in modulating airway epithelial cell function, CFTR activators were studied in combination with porcine trachea. In this example, porcine trachea from animals having a mutated CFTR (CFTR (−/−) and from animals having a WT-CFTR (CFTR+/+) were evaluated for ASL depth, PCL depth, CBF and MCT. The results are shown in FIGS. 7A-7H.
FIGS. 7G and 7H show the response of epithelial functional parameters, namely ASL depth, CBF and MCT in CFTR−/− and CFTR+/+ animals in response to sequential pharmacologic intervention by ivacaftor (10 μM), forskolin (100 nM) and acetylcholine (100 μM); in this experiment, acetylcholine served as a positive control to induce glandular extrusion in CF tissue). In these experiments, agonists were added to the bath solution and all experiments were conducted under physiological conditions (37° C. and 100% humidity). […] In contrast to FIG. 7G, ASL depth, CBF and MCT were all increased in response to ivacaftor treatment in CFTR+/+ animals, consistent with the results described above for human tissue.
Normal piglet tracheas were obtained from Exemplar Genetics (Sioux Center, Iowa). Tissue were dissected from one-day-old piglets and shipped on wet ice in DMEM. A modified protocol based on airway tissue handling and preparation methods developed by Ballard et al. (Am J Physiol Lung Cell Mol Physiol 298: L270-276, 2010) was employed. Tracheas were immersed in 80 mL Ringer bicarbonate solution (KRB) baths at room temperature and slowly warmed to 37° C. After four hours of pretreatment, the tracheas were removed from the KRB. Accessible mucus and liquid were aspirated from the airway lumens and the tracheal ends were cannulated so that the serosal surface was bathed in KRB [29] without contacting the mucosal surface, as previously described (Ballard et al., Am J Physiol Lung Cell Mol Physiol 298: L270-276, 2010; Martens, et al., Am J Physiol Lung Cell Mol Physiol 301: L236-246, 2011). Tracheas were allowed to equilibrate in KRB bubbled with 95% 02 and 5% CO2 at 37° C. and the luminal side exposed to conditioned air at 100% humidity for 2 hours prior to mOCT imaging (Sleigh et al., Comp Biochem Physiol A Comp Physiol 94: 359-364, 1989).
The μOCT system is a spectral-domain OCT implementation with several improvements to standard OCT that yield high resolution in both lateral and axial directions. The general layout and axial resolution characterization have been described (Liu et al., PLOSOne, 8(1), E54473-2013). A super-continuum source (Fianium SC450) provides the high-bandwidth, short coherence length light necessary for high axial resolution ([…]). A typical OCT system includes an interferometer with the reference and sample arms intersecting at a beamsplitter. The beamsplitter is replaced in μOCT with a 45 degree rod mirror, which apodizes the sample beam by introducing a circular obscuration in the center to achieve a balance of good lateral resolution (2 μm) and long depth of focus (0.2 mm). Custom software is employed to control the galvanometer scanning motors while acquiring spectral data from the line camera. […]

[2] = target: G551D-CFTR (Homo sapiens, UniProt P13569, G551D); set-up: host or cells: CF patients carrying G551D-CFTR (endogenous protein); settings: CF patients with G551D-CFTR; reported; cited from earlier work
G551D-CFTR, sequence (P13569 whole entry G551D): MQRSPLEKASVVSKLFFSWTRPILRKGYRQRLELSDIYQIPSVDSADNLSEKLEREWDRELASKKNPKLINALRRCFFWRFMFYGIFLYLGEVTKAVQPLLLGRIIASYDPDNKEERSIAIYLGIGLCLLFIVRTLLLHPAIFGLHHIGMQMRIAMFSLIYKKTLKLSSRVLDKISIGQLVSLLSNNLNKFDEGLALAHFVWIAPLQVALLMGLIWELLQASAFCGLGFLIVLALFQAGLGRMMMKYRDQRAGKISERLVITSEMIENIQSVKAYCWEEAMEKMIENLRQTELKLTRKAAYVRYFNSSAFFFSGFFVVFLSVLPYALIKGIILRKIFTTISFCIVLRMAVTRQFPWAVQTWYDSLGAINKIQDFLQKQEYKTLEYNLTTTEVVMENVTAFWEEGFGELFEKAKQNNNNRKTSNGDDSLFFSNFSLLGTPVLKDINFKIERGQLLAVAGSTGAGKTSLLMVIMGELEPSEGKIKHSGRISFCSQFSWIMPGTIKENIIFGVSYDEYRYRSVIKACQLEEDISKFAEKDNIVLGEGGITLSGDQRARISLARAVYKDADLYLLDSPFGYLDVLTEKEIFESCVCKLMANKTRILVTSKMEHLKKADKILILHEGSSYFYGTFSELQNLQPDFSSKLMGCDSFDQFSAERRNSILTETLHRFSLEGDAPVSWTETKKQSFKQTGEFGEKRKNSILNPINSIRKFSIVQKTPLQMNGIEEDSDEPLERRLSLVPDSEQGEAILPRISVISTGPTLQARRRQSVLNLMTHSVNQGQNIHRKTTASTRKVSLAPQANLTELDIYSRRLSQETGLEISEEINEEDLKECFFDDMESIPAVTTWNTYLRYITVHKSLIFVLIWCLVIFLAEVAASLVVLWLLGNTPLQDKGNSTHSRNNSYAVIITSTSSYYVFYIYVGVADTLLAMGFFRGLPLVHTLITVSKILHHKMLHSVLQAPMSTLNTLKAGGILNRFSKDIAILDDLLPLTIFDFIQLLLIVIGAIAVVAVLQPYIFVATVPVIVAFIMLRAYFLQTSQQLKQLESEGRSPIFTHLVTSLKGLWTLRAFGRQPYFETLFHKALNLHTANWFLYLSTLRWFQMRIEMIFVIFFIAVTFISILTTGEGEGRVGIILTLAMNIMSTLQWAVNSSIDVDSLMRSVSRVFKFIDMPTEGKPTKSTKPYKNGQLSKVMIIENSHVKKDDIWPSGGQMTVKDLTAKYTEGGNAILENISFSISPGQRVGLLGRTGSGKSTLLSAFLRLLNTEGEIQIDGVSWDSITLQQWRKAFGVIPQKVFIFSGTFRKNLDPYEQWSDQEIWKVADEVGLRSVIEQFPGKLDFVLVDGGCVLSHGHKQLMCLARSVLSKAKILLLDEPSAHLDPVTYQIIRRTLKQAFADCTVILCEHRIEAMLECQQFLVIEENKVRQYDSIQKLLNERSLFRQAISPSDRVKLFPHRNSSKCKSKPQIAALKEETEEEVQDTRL

Question: Which results are given for `CC(C)(C)c1cc(C(C)(C)C)c(NC(=O)c2c[nH]c3ccccc3c2=O)cc1O` [ivacaftor]?
Answer: ASL depth response [1]: no response; CBF response [1]: no response; MCT response [1]: no response; measures of CFTR activity [2]: improved; pulmonary function [2]: enhanced
